According to patent US4937373A, “Substituted naphthalene carboxylic acids” (Hoffmann-La Roche Inc., priority 1988, dated 1990):

Experiments:
[1] = tested on: Rat Acetic Acid Colitis Model; assay: Acetic acid-induced colitis in rats, in vivo (myeloperoxidase accumulation); design: species or system rat (Sprague-Dawley)
Source text: ACETIC ACID-INDUCED COLITIS IN RATS, IN VIVO
The rat acetic acid induced colitis bioassay has been described by J. E. Krawisz, et al. in Amer. J. Proc. Gastro. Col. Rec. Surg. 31: 11-18 (1980), and by P. Sharon and W. F. Stenson in Gastroenterology 88: 55-63 (1985) and 86: 453-460 (1984). Acetic acid-induced colitis is characterized by the movement of inflammatory cells into the colon, with the number of such cells in the mucosa being measured by the activity of myeloperoxidase, a marker enzyme for these cells. Positive desirable activity is indicated by a reduction in the high levels of myeloperoxidase caused by acetic acid. Male rats (Sprague-Dawley), weighing 150 to 300g, were pretreated twice daily for two days with either the vehicle (water, or dimethylsulfoxide) or the test inhibitor compound suspended in water or dissolved in dimethylsulfoxide and orally administered. On the third day, the animals were dosed the same as on the previous two days, anesthetized with metofane, and 2 ml of 2.5% acetic acid was injected by syringe into the colonic lumen, followed immediately by 3 ml of air and a rinse consisting of 3 ml of phosphate-buffered saline (the acetic acid is present in the lumen for a sufficient period to cause inflammation without producing severe necrosis or irreversible damage). The animals were administered a second dose of the test compound in the same amount about 16 hours later. 24 hours after the acetic acid treatment, the animals were sacrificed, the colonic mucosa was surgically removed and homogenized in an aqueous buffer at pH 6 with a Tissumizer or similar device and myeloperoxidase was measured in the homogenate using o-phenylenediamine as a chromagen, as described by A. Voller, D. E. Bidwell and A. Bartlett in The Enzyme Linked Immunosorbent Assay (ELISA), Zoological Soc., London 1979, pages 29-30. Control animals were pretreated with the vehicle and saline in place of acetic acid.

[2] = tested on: rat peritoneal macrophages (^14 C-arachidonic acid release); assay: Rat peritoneal macrophage assay, in vitro: ^14 C release from arachidonic acid metabolism; type: cell-based; settings: stimulated with calcium ionophore A 23187 (5×10^-7 M), ^14 C released
Source text: (§1) RAT PERITONEAL MACROPHAGE ASSAY, IN VITRO
(§2) The rat peritoneal macrophage assay measures the ability of a test compound to influence the release of arachidonic acid (AA) from phospholipid stores in the plasma membrane and the subsequent metabolism of AA by the Δ^5 -lipoxygenase (5-LO) and cyclooxygenase (CO) pathways to the final products excreted by the cells: leukotriene B4 (LTB4, from the 5-LO pathway) and prostaglandin E2 (PGE2, from the CO pathway).
(§3) Macrophages were obtained form rats by peritoneal lavaqe with phosphate buffered saline minus Ca^+2 and Mg^+2 (PBS). Cells were washed 3 times with PBS and resuspended in Delbecco's Modified Eagle medium (Gibco Laboratories) containing L-glutamine and D-glucose and supplemented with 10% fetal calf serum. Cells were counted on a Coulter ZBA cell counter and then resuspended to a concentration of 4×10^6 cells/mL. Three mL of the cell suspension were added to plastic culture dishes (3 cm), and then the cells were allowed to adhere for 90 minutes at 37° C. Dishes were washed 3 times with PBS to remove nonadherent cells. ^14 C-AA (ca. […]) were added to the cells (1 μCi/dish) and allowed to incorporate for 90 minutes. Unincorporated ^14 C-AA was removed and the cell layer was again washed 3 times with PBS. Test compounds were dissolved in DMSO and diluted in phosphate-buffered Hank's balanced salt solution to appropriate concentrations. Cells were incubated with test compounds or the solution used to dissolve the test compounds (control) for 30 minutes at 37° C. and were then stimulated with calcium ionophore A 23187 (5×10^-7 M) for 20 minutes. The extracellular fluid was removed and ^14 C radioactivity released into this fluid from AA metabolism was measured by liquid scintillation spectroscopy. The amounts of LTB4 and PGE2, were measured in the extracellular fluid by radioimmunoassay with specific antisera. The effect of a test compound or standard was calculated as a percent inhibition of the maximum effect produced in the presence of A 23187 and expressed as an inhibitory concentration 50% IC50).
(§4) This assay measures inhibition by the test compounds of the 5-LO and the CO pathways of AA metabolism and this inhibition is expressed as an IC50 for LTB4 and PGE2 formation respectively.

[3] = tested on: cyclooxygenase (CO) pathway, PGE2 formation in rat peritoneal macrophages; assay: Rat peritoneal macrophage assay, in vitro: PGE2 formation (CO pathway); type: cell-based; settings: stimulated with calcium ionophore A 23187 (5×10^-7 M), PGE2 by radioimmunoassay
Source text: as §1, §2, §3, §4

[4] = tested on: Δ^5 -lipoxygenase (5-LO) pathway, LTB4 formation in rat peritoneal macrophages; assay: Rat peritoneal macrophage assay, in vitro: LTB4 formation (5-LO pathway); type: cell-based; settings: stimulated with calcium ionophore A 23187 (5×10^-7 M), LTB4 by radioimmunoassay
Source text: as §1, §2, §3, §4

[5] = target: T1, Δ^5 lipoxygenase from rat basophilic leukemia (RBL-1 cells) (Rattus norvegicus, UniProt P12527); assay: In vitro test for Δ^5-lipoxygenase inhibitors; type: biochemical; settings: RBL-1 supernatant enzyme, 6.7 μM [1-^14 C]arachidonic acid, 10 min preincubation; read-out: IC50 value, Δ^5-lipoxygenase inhibition
T1 construct: the resulting supernatant fraction was used as the source of Δ^5 -lipoxygenase; endogenous in cells; host or cells: RBL-1 rat basophilic leukemia cells (supernatant of the homogenate after 49,000 g)
T1 sequence (P12527 1-673): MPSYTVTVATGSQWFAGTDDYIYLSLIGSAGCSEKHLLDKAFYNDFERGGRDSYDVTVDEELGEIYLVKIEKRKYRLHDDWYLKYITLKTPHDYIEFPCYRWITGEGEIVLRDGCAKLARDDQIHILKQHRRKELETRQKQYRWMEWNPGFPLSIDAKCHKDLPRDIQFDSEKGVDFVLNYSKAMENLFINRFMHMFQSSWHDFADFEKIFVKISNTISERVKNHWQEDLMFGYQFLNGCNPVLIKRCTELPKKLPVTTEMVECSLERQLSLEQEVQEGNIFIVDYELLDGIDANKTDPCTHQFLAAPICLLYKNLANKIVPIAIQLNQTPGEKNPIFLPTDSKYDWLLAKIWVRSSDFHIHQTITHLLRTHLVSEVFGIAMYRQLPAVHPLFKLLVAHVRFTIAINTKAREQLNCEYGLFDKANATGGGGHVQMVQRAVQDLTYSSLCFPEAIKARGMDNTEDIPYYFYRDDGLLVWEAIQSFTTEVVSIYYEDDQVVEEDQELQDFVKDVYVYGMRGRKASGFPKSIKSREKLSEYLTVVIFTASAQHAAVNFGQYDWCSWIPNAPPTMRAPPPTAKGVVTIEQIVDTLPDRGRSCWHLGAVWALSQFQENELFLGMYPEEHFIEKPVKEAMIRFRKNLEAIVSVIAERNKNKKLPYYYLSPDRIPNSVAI
Protocol: IN VITRO TEST FOR Δ^5 -LIPOXYGENASE INHIBITORS
In this procedure a compound is tested for its effect on Δ^5 lipoxygenase from rat basophilic leukemia (RBL-1 cells). The activity of this enzyme was determined by measuring the catalytic conversion of [1-^14 C]arachidonic acid to [1-^14 C-5-hydroperoxy- 6,8,11,14-eicosatetraenoic acid ([1-^14 C]-5-HPETE) which leads to the formation of the 5-hydroxy derivative ([1-^14 C]-5-HETE). The Δ^5 -lipoxygenase was derived from the supernatant fraction of lysed RBL-1 cells using a modification of the method previously described by Jakschik and Lee [Nature 287,51 (1980)]. Briefly, RBL-1 cells were lysed by homogenization in ice-cold buffer (50 mM Tris-HCl buffer. PH 7.2, containing 1 mM EDTA and 14 μM indomethacin). The homogenate was centrifuged at 4° at 49,000 g for 20 minutes and the resulting supernatant fraction was used as the source of Δ^5 -lipoxygenase. […] The ethereal extract containing [1-^14 C]-5-HETE and unreacted substrate was analyzed by silica gel TLC using isooctanemethylethyl ketone-acetic acid (100:9:1) as the developing solvent. […] The effect of an inhibitor on Δ^5 -lipoxygenase activity is determined by preincubating the enzyme for 10 minutes at 30° in the presence or absence of various concentrations of the drug prior to addition of substrate. […]

Row | SMILES | % Inhibition of Myeloperoxidase Accumulation ([1]; 10 mg/kg po) [%] | IC50 [2] [nM] | IC50 [3] [µM] | IC50 [4] [nM] | % Inhibition of Myeloperoxidase Accumulation ([1]; 1 mg/kg po) [%] | IC50 [5] [nM]
1 | CC(C(=O)O)c1ccc2cc(OCCCCCCc3cccc(O)c3O)ccc2c1 (racemic) [(rac)-6-[6-(2,3-Dihydroxyphenyl)hexyloxy]-alpha-methyl-2-naphthalene-aceticacid] | 88 ± 17 | 1000 | 3 | 600 | – | –
2 | O=C(O)c1ccc2cc(OCCCCCCc3cccc(O)c3O)ccc2c1 [6-[6-(2,3-Dihydroxyphenyl)hexyloxy]-2-naphthalenecarboxylic acid] | – | 3000 | 9 | 3000 | 72 ± 8 | –
3 | O=C(O)Cc1ccc2cc(OCCCCCCc3cccc(O)c3O)ccc2c1 [6-[6-(2,3-dihydroxyphenyl)hexyloxy]-2-naphthalene acetic acid] | – | 3000 | 5 | 900 | 72 ± 8 | –
4 | CCOC(=O)[C@@H](C)c1ccc2cc(OCCCCCCc3cccc(O)c3O)ccc2c1 [(S)-6-[6-(2,3-Dihydroxyphenyl)hexyloxy]-alpha-methyl-2-naphthaleneacetic acid ethyl ester] | 23 ± 5 | 3000 | 4 | 600 | – | –
5 | C[C@H](C(=O)O)c1ccc2cc(OCCCCCCc3cccc(O)c3O)ccc2c1 [(S)-6-[6-(2,3-dihydroxyphenyl)hexyloxy]-alpha-methyl-2-naphthaleneacetic acid] | – | 900 | 1 | 200 | 90 ± 11 | 12
6 | C[C@H](C(=O)O)c1ccc2cc(OCCCCCCc3ccc(O)c(O)c3)ccc2c1 [(S)-6-[6-(3,4-dihydroxyphenyl)hexyloxy]-alpha-methyl-2-naphthaleneacetic acid] | 13 ± 2 | 1000 | 3 | 600 | – | –
